Measurements as given in ChEMBL document CHEMBL4052632 (Eur J Med Chem, 2017).

Columns and labels:
A2780 [1] = test: Antitumor activity against human A2780 cells xenografted in BALB/c nude mouse assessed as tumor growth inhibition at 50 mg/kg, ip administered once every 2 days for 14 consecutive days relative to control; format: functional; details: read-out: TGI
A2780 [2] = test: Antitumor activity against human A2780 cells xenografted in BALB/c nude mouse assessed as tumor growth inhibition at 30 mg/kg, ip administered once every 2 days for 14 consecutive days relative to control; format: functional; details: read-out: TGI
A2780 [3] = test: Induction of apoptosis in human A2780 cells assessed as total apoptotic cells at 5 to 20 uM after 24 hrs by annexin V/propidium iodide staining based flow cytometry (reference value: 17.3%); format: functional
[4] = molecular target: T1, Glycogen synthase kinase-3 beta (Homo sapiens, UniProt P49841); test: Inhibition of recombinant human GSK3beta using […] as substrate at 100 uM after 60 mins by spectrophotometric analysis
[5] = molecular target: 5'-AMP-activated protein kinase catalytic subunit alpha-1 (Homo sapiens) (UniProt Q13131); test: Inhibition of full length recombinant human AMPKalpha1 using AMARAASAAALARRR as substrate at 100 uM after 40 mins in presence of ATP relative to control
[6] = molecular target: Cyclin-dependent kinase 1/cyclin B1 (Homo sapiens) (UniProt P06493+P14635); test: Inhibition of recombinant human CDK1/CyclinB using Ulight-CFFKNIVTPRTPPPSQGK-amide as substrate at 100 uM after 15 mins in presence of ATP relative to control; format: protein-complex assay
[7] = molecular target: Serine/threonine-protein kinase Chk1 (Homo sapiens) (UniProt O14757); test: Inhibition of recombinant human CHK1 using CREBtide as substrate at 100 uM after 30 mins in presence of ATP relative to control
Homo sapiens = species: Homo sapiens; test: Inhibition of recombinant human CK2 using Ulight-IkappaB-alpha as substrate at 100 uM after 60 mins in presence of ATP relative to control
[8] = molecular target: Protein kinase C alpha type (Homo sapiens) (UniProt P17252); test: Inhibition of recombinant human PKCalpha using biotinyl-beta Abeta Abeta AKIQASFRGHMARKK as substrate at 100 uM after 10 mins in presence of ATP relative to control
[9] = molecular target: Mitogen-activated protein kinase 13 (Homo sapiens) (UniProt O15264); test: Inhibition of recombinant human SAPK4 using Ulight-CFFKNIVTPRTPPPSQGK-amide as substrate at 100 uM after 15 mins in presence of ATP relative to control
[10] = molecular target: Dual specificity mitogen-activated protein kinase kinase 1 (Homo sapiens) (UniProt Q02750); test: Inhibition of recombinant human MEK1 using inactivated ERK2 as substrate at 100 uM after 60 mins in presence of ATP relative to control
[11] = molecular target: Mitogen-activated protein kinase 1 (Homo sapiens) (UniProt P28482); test: Inhibition of human MAPK2 at 100 uM in presence of ATP relative to control
[12] = molecular target: 3-phosphoinositide-dependent protein kinase 1 (Homo sapiens) (UniProt O15530); test: Inhibition of recombinant human PDK1 using Ulight-FLGFTYVAP as substrate at 100 uM after 90 mins in presence of ATP relative to control
[13] = molecular target: Platelet-derived growth factor receptor beta (Homo sapiens) (UniProt P09619); test: Inhibition of PDGFRbeta (unknown origin) using poly (Glu, Tyr) 4:1 as substrate at 100 uM after 1 hr by ELISA relative to control
[14] = molecular target: Mast/stem cell growth factor receptor Kit (Homo sapiens) (UniProt P10721); test: Inhibition of c-kit (unknown origin) using poly (Glu, Tyr) 4:1 as substrate at 100 uM after 1 hr by ELISA relative to control
[15] = molecular target: Receptor tyrosine-protein kinase erbB-2 (Homo sapiens) (UniProt P04626); test: Inhibition of ErbB2 (unknown origin) using poly (Glu, Tyr) 4:1 as substrate at 100 uM after 1 hr by ELISA relative to control
[16] = molecular target: Receptor tyrosine-protein kinase erbB-4 (Homo sapiens) (UniProt Q15303); test: Inhibition of ErbB4 (unknown origin) using poly (Glu, Tyr) 4:1 as substrate at 100 uM after 1 hr by ELISA relative to control
[17] = molecular target: Epidermal growth factor receptor (Homo sapiens) (UniProt P00533); test: Inhibition of EGFR (unknown origin) using poly (Glu, Tyr) 4:1 as substrate at 100 uM after 1 hr by ELISA relative to control
[18] = molecular target: Ephrin type-A receptor 2 (Homo sapiens) (UniProt P29317); test: Inhibition of EPH-A2 (unknown origin) using poly (Glu, Tyr) 4:1 as substrate at 100 uM after 1 hr by ELISA relative to control
[19] = molecular target: Proto-oncogene tyrosine-protein kinase Src (Homo sapiens) (UniProt P12931); test: Inhibition of c-Src (unknown origin) using poly (Glu, Tyr) 4:1 as substrate at 100 uM after 1 hr by ELISA relative to control
[20] = molecular target: Vascular endothelial growth factor receptor 2 (Homo sapiens) (UniProt P35968); test: Inhibition of KDR (unknown origin) using poly (Glu, Tyr) 4:1 as substrate at 100 uM after 1 hr by ELISA relative to control
[21] = molecular target: Hepatocyte growth factor receptor (Homo sapiens) (UniProt P08581); test: Inhibition of c-Met (unknown origin) using poly (Glu, Tyr) 4:1 as substrate at 100 uM after 1 hr by ELISA relative to control
[22] = molecular target: ALK tyrosine kinase receptor (Homo sapiens) (UniProt Q9UM73); test: Inhibition of ALK (unknown origin) using poly (Glu, Tyr) 4:1 as substrate at 100 uM after 1 hr by ELISA relative to control
[23] = molecular target: Fibroblast growth factor receptor 1 (Homo sapiens) (UniProt P11362); test: Inhibition of FGFR1 (unknown origin) using poly (Glu, Tyr) 4:1 as substrate at 100 uM after 1 hr by ELISA relative to control
A2780 [24] = test: Cell cycle arrest in human A2780 cells assessed as accumulation at G0/G1 phase at 5 to 15 uM after 48 hrs by propidium iodide staining based flow cytometry ( Rvb = 60%); format: functional
A2780 [25] = test: Cell cycle arrest in human A2780 cells assessed as decrease in S phase after 48 hrs by propidium iodide staining based flow cytometry; format: functional
A2780 [26] = test: Cell cycle arrest in human A2780 cells assessed as decrease in G2/M phase after 48 hrs by propidium iodide staining based flow cytometry; format: functional
A2780 [27] = test: Induction of apoptosis in human A2780 cells after 24 hrs by annexin V/propidium iodide staining based flow cytometry; format: functional, cell-based
[28] = Toxicity in nude BALB/c mouse xenografted with human A2780 cells assessed as body weight loss at 50 mg/kg, ip administered once every 2 days for 14 consecutive days relative to control; format: organism-based; details: in vivo, 48 h
cells = details: Homo sapiens, OVCA433, 48 h
Description: Antiproliferative activity against human OVCA433 cells measured after 48 hrs by MTT assay

[29] = molecular target: T1, Glycogen synthase kinase-3 beta; test: biochemical
Description: Inhibition of recombinant N-terminal His6-tagged human GSK3beta H350L mutant expressed in baculovirus infected Sf21 insect cells using polypeptide GS-2 as substrate after 30 mins in presence of ATP by kinase-glo luminescence assay

Chain of ALK tyrosine kinase receptor (Homo sapiens) (Q9UM73 19-1620 limits assumed): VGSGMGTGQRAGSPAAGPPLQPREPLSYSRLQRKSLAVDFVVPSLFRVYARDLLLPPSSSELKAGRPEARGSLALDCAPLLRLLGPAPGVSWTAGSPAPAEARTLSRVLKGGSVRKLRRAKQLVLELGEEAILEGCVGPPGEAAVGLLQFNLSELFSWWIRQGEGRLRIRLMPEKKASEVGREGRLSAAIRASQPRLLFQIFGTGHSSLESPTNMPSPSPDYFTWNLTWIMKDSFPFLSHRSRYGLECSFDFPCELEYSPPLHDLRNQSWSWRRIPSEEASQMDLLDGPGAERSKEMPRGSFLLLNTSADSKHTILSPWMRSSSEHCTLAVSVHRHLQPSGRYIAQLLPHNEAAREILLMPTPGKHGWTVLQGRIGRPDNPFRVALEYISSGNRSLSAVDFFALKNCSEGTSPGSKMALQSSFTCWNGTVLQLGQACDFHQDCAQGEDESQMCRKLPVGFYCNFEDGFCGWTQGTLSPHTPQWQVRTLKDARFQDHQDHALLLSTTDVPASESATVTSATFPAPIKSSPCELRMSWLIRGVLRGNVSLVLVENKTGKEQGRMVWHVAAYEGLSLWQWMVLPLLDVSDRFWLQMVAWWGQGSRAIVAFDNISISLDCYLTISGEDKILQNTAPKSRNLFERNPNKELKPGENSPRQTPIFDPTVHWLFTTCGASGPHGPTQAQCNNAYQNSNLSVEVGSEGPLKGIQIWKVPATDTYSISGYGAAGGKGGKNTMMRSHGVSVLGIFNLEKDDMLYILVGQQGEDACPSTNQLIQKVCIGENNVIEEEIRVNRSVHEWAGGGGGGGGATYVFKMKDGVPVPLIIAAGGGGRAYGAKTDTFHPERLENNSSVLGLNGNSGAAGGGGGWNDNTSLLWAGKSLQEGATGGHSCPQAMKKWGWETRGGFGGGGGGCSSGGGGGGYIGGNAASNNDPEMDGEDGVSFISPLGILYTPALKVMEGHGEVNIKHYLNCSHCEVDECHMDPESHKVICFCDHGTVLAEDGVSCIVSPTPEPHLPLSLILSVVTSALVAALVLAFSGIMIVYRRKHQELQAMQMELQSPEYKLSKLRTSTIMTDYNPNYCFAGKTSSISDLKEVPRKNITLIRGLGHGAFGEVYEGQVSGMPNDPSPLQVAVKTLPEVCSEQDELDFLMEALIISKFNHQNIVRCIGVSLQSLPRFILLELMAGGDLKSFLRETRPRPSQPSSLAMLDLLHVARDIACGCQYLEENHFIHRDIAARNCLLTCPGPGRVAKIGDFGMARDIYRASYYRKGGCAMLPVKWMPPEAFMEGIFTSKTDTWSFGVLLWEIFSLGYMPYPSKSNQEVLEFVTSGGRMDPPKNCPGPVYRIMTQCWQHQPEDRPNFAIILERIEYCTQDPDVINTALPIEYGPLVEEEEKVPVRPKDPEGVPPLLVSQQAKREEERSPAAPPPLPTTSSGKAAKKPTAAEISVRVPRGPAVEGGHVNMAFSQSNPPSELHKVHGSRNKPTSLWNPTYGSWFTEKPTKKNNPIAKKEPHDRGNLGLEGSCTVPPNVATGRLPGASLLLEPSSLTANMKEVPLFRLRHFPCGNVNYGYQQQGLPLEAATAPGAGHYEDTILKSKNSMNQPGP
Chain of Cyclin-dependent kinase 1/cyclin B1 (Homo sapiens) (P06493 whole entry, looked up): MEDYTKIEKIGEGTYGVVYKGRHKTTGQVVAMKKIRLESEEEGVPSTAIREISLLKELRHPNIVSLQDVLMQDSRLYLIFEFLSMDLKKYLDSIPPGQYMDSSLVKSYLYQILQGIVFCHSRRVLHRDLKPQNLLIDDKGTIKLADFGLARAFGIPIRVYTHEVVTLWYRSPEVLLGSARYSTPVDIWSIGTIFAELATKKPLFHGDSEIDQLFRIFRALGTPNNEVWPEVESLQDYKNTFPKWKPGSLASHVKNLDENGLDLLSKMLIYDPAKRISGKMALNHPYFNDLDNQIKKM
Chain of Cyclin-dependent kinase 1/cyclin B1 (Homo sapiens) (P14635 whole entry, looked up): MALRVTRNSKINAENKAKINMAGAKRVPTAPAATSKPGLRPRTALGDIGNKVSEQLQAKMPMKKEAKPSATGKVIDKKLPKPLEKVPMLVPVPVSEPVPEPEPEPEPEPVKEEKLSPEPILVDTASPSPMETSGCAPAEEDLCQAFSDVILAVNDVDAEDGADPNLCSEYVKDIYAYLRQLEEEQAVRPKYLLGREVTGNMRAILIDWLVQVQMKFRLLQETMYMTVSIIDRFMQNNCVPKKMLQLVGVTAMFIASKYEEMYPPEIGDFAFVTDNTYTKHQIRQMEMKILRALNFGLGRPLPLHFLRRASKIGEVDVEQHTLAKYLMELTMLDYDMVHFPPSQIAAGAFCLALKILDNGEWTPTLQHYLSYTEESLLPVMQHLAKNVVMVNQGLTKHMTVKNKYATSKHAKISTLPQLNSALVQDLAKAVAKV
Chain of 5'-AMP-activated protein kinase catalytic subunit alpha-1 (Homo sapiens) (Q13131 whole entry, looked up): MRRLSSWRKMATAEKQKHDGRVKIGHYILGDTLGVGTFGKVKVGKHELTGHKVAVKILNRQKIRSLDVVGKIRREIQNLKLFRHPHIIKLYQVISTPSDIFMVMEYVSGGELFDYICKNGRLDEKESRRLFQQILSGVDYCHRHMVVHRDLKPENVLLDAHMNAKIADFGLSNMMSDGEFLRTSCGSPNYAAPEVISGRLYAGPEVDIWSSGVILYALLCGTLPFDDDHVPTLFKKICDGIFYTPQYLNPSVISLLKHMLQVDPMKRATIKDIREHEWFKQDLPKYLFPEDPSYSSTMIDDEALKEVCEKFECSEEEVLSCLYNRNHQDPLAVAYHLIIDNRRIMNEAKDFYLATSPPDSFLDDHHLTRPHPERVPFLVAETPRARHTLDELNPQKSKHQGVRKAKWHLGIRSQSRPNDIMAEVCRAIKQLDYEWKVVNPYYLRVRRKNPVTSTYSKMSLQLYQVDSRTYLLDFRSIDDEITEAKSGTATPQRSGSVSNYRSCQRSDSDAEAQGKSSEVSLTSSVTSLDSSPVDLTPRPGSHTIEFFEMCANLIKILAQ
Chain of Receptor tyrosine-protein kinase erbB-2 (Homo sapiens) (P04626 whole entry): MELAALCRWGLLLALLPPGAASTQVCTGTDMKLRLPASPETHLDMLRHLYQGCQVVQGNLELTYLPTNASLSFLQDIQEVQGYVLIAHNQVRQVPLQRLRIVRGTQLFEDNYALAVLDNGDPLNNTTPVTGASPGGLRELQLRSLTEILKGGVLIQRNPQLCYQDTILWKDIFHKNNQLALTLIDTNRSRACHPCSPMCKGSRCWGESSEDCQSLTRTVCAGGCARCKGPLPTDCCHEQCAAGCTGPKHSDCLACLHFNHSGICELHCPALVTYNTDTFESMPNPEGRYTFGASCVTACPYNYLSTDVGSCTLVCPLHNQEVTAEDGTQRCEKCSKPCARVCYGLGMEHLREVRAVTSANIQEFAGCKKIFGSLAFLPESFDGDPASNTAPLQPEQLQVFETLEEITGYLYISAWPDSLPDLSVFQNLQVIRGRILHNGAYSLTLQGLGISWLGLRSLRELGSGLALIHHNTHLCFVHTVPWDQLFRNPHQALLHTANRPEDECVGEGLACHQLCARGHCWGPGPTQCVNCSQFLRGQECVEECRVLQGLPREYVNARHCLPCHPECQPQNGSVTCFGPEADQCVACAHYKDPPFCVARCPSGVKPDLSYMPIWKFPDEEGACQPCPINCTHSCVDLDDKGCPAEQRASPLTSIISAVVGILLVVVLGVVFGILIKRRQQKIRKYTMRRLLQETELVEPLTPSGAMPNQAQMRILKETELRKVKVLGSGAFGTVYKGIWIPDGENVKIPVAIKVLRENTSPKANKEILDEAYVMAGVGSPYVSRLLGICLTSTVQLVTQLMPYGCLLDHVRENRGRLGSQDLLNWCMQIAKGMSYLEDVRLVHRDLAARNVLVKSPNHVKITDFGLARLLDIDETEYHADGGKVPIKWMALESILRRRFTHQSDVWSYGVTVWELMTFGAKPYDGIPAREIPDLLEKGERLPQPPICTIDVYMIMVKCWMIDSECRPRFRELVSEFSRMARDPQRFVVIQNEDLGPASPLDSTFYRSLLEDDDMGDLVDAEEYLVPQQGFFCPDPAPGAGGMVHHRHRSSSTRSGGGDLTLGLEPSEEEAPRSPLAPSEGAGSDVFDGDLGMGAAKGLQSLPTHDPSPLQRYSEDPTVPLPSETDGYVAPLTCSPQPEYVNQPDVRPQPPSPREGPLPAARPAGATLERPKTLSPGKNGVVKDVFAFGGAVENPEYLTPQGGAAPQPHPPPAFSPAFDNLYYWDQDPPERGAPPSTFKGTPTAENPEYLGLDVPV

CCCCCCCCCCCCCCC(=O)NC1CCN(C(=O)C2Sc3ccccc3N(CC)C2=O)CC1 (stereo unspecified) gave an inhibition in vivo at 50 mg/kg (A2780 [1]) of 41.3%, an inhibition in vivo at 30 mg/kg (A2780 [2]) of 37.8% and an Activity (A2780 [3]) of 83.3%. The inhibition [4] was 94.3%, the inhibition [5] was 34% and the inhibition [6] was 7%. For the same compound, the inhibition [7] was -8%, the inhibition (Homo sapiens) was 0% and the inhibition [8] was -7%. It also gave an inhibition [9] of 16%, an inhibition [10] of 12% and an inhibition [11] of 7%. The inhibition [12] was 0%, the inhibition [13] was 19.6% and the inhibition [14] was 0%. The inhibition [15] was 0%, the inhibition [16] was 34.3% and the inhibition [17] was 0%. For the same compound, the inhibition [18] was 13%, the inhibition [19] was 3.2% and the inhibition [20] was 22.5%. The inhibition [21] was -4.8%, the inhibition [22] was -1.7% and the inhibition [23] was 9.3%. The Activity (A2780 [24]) was 77.1%, the Activity (A2780 [25]) was “Dose-dependent effect” and the Activity (A2780 [26]) was “Dose-dependent effect”. The Activity (A2780 [27]) was “Dose-dependent effect”, the Activity [28] was “Non-Toxic” and the IC50 (cells) was 8.3 µM. It also gave an IC50 [29] of 22.4 µM.
